What was measured:
[1] = test system: 43-year old Cryptomeria japonica trees; assay: Aerial (helicopter curtain) application of the agent to a forest of 43-year old Cryptomeria japonica trees (Example 2); assay type: in vivo; conditions: 43-year old trees; for Number of male flower clusters: Table 6 composition (polyoxyethylene castor oil, tetrahydrofurfuryl alcohol, water), 1.8 liters per 10 a by helicopter, control group 2985.8 ± 789.1; for Shoot Elongation: Table 6 composition, control group 80.8 ± 9.4
Procedure: A Cryptomeria japonica forest having 43-year old Cryptomeria japonica trees (height: 16 m, diameter at breast height: 35 cm) was treated in Nirayama experimental plantation of the department of agriculture of Tottori University on Jun. 25, 2001.
The concentration of the agent for inhibiting the formation of Cryptomeria japonica pollen thus sprayed was 50 or 500 ppm.
1.8 liters of each of the above described two compositions was applied to the forest having an area of 10 a by the curtain application method with a helicopter. The aerial application was conducted twice, using 0.9 liter of the composition each time. In a control group, only water free from the active ingredients was used for the aerial application.

[2] = test system: 8-year old young Cryptomeria japonica trees; assay: Foliar spray of prohexadione compound on branches of 8-year old young Cryptomeria japonica trees (Example 1); assay type: in vivo; conditions: 8-year old trees; for Branches Elongation: control group 24.6 ± 6.4; for Number of male flower clusters: 100 ml foliar spray, control group 136.9 ± 21.6
Procedure: Two 8-year old young Cryptomeria japonica trees (height: 8 m, diameter at breast height: 6 cm) which were in a nursery of an experimental plantation of the department of agriculture of Tottori University and which had formed male flowers every year were used. Three branches were selected at male flower-forming positions of each tree. These branches which were supposed to form the male flowers were treated with the prohexadione compound ([…]) on Jun. 5, 2001 (about one month before the beginning of July when Cryptomeria japonica flower buds were supposed to differentiate and Cryptomeria japonica flower buds were supposed to be formed). In this test, the prohexadione compound was diluted to a concentration shown in Table 3 given below with 60% (v/v) aqueous acetone solution.
The treatment method was as follows: 100 ml of the diluted solution obtained as described above was sprayed on leaves of the branches (50 cm long area from the branch top) with a hand sprayer In a control group, the leaves were treated with only 60% (v/v) aqueous acetone solution.
The concentrations of the prohexadione compound used for the foliar spray treatment were as follows: • Concentration (ppm) • 0.5 • 5 • 50 • 500

CCOC(=O)C1CC(=O)C(=C(O)C2CC2)C(=O)C1 (stereo not shown)
Elongation growth of the Cryptomeria japonica trees versus control group (in words) ([1]; 50 or 500 ppm, aerial application): substantially the same as that in the control group
Effect of inhibiting the differentiation and formation of the male flowers (in words) ([1]; 50 ppm or 500 ppm, aerial application): remarkable effect
Number of male flower clusters ([1]; 50 ppm): 751.3 ± 121.5
Shoot Elongation ([1]; 50 ppm, aerial application): 83.3 ± 10.7 cm
Number of male flower clusters ([1]; 500 ppm): 124.2 ± 55.2
Shoot Elongation ([1]; 500 ppm, aerial application): 82.8 ± 11.2 cm
Branches Elongation ([2]; 0.5 ppm foliar spray): 25.5 ± 7.2 cm
Number of male flower clusters ([2]; 0.5 ppm in 60% aqueous acetone): 111.6 ± 25.2
Elongation growth of the Cryptomeria japonica branches versus control group (in words) ([2]; 0.5 to 500 ppm): substantially unchanged
Branches Elongation ([2]; 5 ppm foliar spray): 26.2 ± 6.5 cm
Number of male flower clusters ([2]; 5 ppm in 60% aqueous acetone): 70.4 ± 12.4
Branches Elongation ([2]; 50 ppm foliar spray): 24.3 ± 6.3 cm
Number of male flower clusters ([2]; 50 ppm in 60% aqueous acetone): 21.2 ± 6.5
Effect of inhibiting the differentiation and formation of male Cryptomeria japonica flowers (in words) ([2]; 50 ppm or 500 ppm): remarkable
Branches Elongation ([2]; 500 ppm foliar spray): 25.2 ± 5.5 cm
Number of male flower clusters ([2]; 500 ppm in 60% aqueous acetone): 10.8 ± 6.1

— US20080153705A1, “METHOD FOR INHIBITING DIFFERENTITATION AND FORMATION OF CONIFEROPHYTA MALE FLOWERS BY TREATMENT WITH PROHEXADIONE COMPOUNDS” (Syngenta Crop Protection, Inc., priority 2002, published 2008)
